Assay results reported in ChEMBL document CHEMBL1201862, “PubChem BioAssay data set” (2004).
Calls of active or inactive are those of the source.

Experiments:
[1] = target: Major prion protein (Homo sapiens, UniProt P04156); assay type: functional, cell-based
[2] = cells
[3] = tested on: HEK293; test: Fluorescence-based counterscreen for potentiators or agonists of NPY-Y2: cell-based high-throughput dose response assay to identify inhibitors of cyclic nucleotide gated ion channel (CNGC) activity. In this assay, the parental HEK293 cell line transfected with a cyclic-nucleotide gated ion channel (CNGC)-based cAMP sensor is used to measure inhibition of isoproterenol-induced CNGC activity by test compound.; assay type: functional; details: Homo sapiens;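 note: stimulus is 1 µM isoproterenol at EC100 plus PDE inhibitor Ro 20-1724 at 25 µM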
[4] = tested on: Streptococcus sp. 'group A'; test: Streptococcus pyogenes SK(-)GAS viability under kanamycin – luminescence, BacTiterGlo, confirmation, counter-screen for streptokinase expression inhibitor project, dose response (AID 1900); assay type: functional, organism-based
[5] = target: T1, Neuropeptide Y receptor type 2 (Homo sapiens, UniProt P49146); test: Fluorescence-based cell-based high-throughput dose response assay for agonists of NPY-Y2. [Related pubchem assays: 1703 (Screening assay (CNGC inhibitors).), 1359 (Screening assay (NPY-Y2 potentiators or agonists).), 1304 (Screening assay (NPY-Y1 potentiators or agonists).), 1710 (Screening assay (NPY-Y2 agonists).), 1791 (Summary AID.)]; assay type: functional
T1 sequence (P49146 whole entry): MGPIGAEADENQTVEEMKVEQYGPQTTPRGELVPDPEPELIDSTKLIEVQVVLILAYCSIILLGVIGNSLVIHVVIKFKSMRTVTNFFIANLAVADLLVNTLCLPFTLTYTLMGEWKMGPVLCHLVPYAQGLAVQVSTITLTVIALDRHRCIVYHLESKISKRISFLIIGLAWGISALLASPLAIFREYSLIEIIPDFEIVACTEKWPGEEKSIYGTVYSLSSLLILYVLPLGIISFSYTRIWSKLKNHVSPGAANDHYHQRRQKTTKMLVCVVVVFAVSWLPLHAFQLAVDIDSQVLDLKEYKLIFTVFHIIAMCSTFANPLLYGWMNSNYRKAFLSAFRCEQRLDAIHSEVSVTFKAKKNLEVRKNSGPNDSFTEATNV

[6] = target: T2, Streptokinase A (Streptococcus pyogenes serotype M1, UniProt P10520); test: viability-normalized secreted streptokinase activity reduction – plasminogen activation absorbance, OD405, dose response (AID 1914); assay type: functional, Streptococcus pyogenes M1 GAS;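 note: secreted streptokinase activity via plasminogen activation per viability signal from cell pellet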
T2 sequence (P10520 whole entry): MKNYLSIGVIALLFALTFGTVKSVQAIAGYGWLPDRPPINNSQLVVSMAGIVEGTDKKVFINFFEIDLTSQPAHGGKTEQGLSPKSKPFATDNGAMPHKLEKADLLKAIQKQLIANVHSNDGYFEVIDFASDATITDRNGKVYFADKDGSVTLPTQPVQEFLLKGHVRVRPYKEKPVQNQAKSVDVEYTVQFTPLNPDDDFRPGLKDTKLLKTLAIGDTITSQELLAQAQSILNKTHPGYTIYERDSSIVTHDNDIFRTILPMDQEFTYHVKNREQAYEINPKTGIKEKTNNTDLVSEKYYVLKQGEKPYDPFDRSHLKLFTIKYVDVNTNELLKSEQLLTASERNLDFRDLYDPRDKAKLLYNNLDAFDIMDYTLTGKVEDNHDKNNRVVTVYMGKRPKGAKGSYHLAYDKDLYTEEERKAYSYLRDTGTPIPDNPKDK

[7] = target: T3, Neuropeptide Y receptor type 1 (Homo sapiens, UniProt P25929); test: Fluorescence-based counterscreen for agonists of NPY-Y2: cell-based high-throughput dose response assay for agonists of NPY-Y1.; assay type: functional
T3 sequence (P25929 whole entry): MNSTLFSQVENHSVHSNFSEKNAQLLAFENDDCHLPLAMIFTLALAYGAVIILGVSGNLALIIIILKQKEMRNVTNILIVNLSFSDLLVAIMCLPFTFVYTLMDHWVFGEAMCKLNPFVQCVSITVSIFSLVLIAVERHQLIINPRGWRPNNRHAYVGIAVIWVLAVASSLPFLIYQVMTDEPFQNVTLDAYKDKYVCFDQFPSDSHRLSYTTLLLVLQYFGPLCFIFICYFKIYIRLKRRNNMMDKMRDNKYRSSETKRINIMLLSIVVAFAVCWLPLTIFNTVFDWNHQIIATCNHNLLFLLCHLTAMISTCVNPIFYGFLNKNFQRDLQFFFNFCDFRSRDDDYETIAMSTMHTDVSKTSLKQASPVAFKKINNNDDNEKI

[8] = tested on: Streptococcus; test: GAS UMAA2166 growth inhibition – luminescence, BacTiterGlo, counter-screen for streptokinase expression inhibitor project, dose response (AID 1915); assay type: functional, organism-based;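 note: potency for reduction of bacterial viability or growth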
[9] = cells; assay type: functional
[10] = target: Kallikrein-7 (Homo sapiens, UniProt P49862); test: Fluorescence Intensity-based biochemical primary high throughput dose response assay to identify activators of kallikrein-7 (K7) zymogen.
[11] = target: NAD-dependent protein deacylase sirtuin-5, mitochondrial (Homo sapiens, UniProt Q9NXA8); test: sirtuin-5 deacylation blockers, concentration series – biochemical, fluorescence imaging, cherry-pick, set 5, dose response (AID 720591);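 note: desuccinylation of succinyl peptide AMC substrate read as fluorescence after trypsin release; potency of inhibitors that lower fluorescence and may act on trypsin instead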
[12] = target: Eukaryotic translation initiation factor 4H (Homo sapiens, UniProt Q15056); test: eIF4H binding inhibition – biochemical, uHTS, fluorescence polarization, translation initiation inhibitor project, primary screen (AID 2012)
[13] = target: Polyadenylate-binding protein 1 (Homo sapiens, UniProt P11940); test: blockers of PABP interaction with poly(A) – biochemical, fluorescence polarization, […] (AID 2014)
[14] = target: DNA dC->dU-editing enzyme APOBEC-3A (Homo sapiens, UniProt P31941); test: Dose Response confirmation of small molecule APOBEC3A DNA Deaminase Inhibitors via a fluorescence-based single-stranded DNA deaminase assay. [Related pubchem assays (depositor defined):AID493011, AID493024]; assay type: functional
[15] = target: DNA dC->dU-editing enzyme APOBEC-3G (Homo sapiens, UniProt Q9HC16); assay type: functional;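 note: Dose-response counterscreen measuring inhibition of APOBEC3G DNA deaminase activity, run while confirming APOBEC3A inhibitors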
[16] = Trypanosoma cruzi growth suppression in host cells – NIH3T3 host cells, beta-gal luminescence, confirmation (AID 2044); assay type: functional, cell-based;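 note: intracellular parasites grown in NIH/3T3 mouse fibroblasts as host cells; luminescent beta-galactosidase reporter signal from transgenic T. cruzi replicating inside host cells; inhibitors lower the luminescence signal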
[17] = NIH3T3 cell viability loss – ATP luminescence, mouse fibroblasts, counter-screen, dose response (AID 2010); assay type: functional, cell-based;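 note: cells exposed to compound for about 90 hours before reading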
[18] = A549 cell cytotoxicity, dose response, cytotoxicity control, plate reader, cherry-pick, antagonist series (AID 743412); assay type: functional, cell-based
[19] = toxicity toward HepG2 liver cells – cell-based, plate reader, cherry-pick, antagonist series, cytotoxicity control, dose response (AID 743416); assay type: functional
[20] = viability loss in HEK293 cells – cell-based, plate reader, cherry-picked samples, cytotoxicity control, dose response (AID 743446); assay type: functional
[21] = blockers of HIV-1 envelope-mediated cell-cell fusion – cherry-pick, dose response (AID 652057); assay type: functional, cell-based
[22] = blockers of HIV-1 ZM109 envelope-driven cell-cell fusion – HeLa effector, CEM target cells, luciferase, cherry-pick, dose response (AID 652058); assay type: functional, cell-based;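 note: luciferase signal from HIV-1 Env mediated cell-cell fusion of effector and target cells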
[23] = off-target signal loss in HeLa-CEM21 co-culture – HeLa F-luc CTL cells, cherry-picked, counter-screen for HIV-1 Env fusion inhibitor project, dose response (AID 652040); assay type: functional, cell-based;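 note: potency for signal decrease marking cytotoxic or nonspecific inhibition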
[24] = HIV-1 AD8 envelope cell-cell fusion blockers – cherry-pick, dose response (AID 652062); assay type: functional, cell-based;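 note: luciferase signal from cell-cell fusion driven by HIV-1 clade B AD8 Env; potency is for inhibitors of fusion seen as a drop in luminescence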
[25] = target: T4, C-C chemokine receptor type 6 (Homo sapiens, UniProt P51684); test: antagonism of CCR6 beta-arrestin recruitment – cell-based, luminescent beta-arrestin readout, dose response (AID 504728); assay type: functional
T4 sequence (P51684 whole entry): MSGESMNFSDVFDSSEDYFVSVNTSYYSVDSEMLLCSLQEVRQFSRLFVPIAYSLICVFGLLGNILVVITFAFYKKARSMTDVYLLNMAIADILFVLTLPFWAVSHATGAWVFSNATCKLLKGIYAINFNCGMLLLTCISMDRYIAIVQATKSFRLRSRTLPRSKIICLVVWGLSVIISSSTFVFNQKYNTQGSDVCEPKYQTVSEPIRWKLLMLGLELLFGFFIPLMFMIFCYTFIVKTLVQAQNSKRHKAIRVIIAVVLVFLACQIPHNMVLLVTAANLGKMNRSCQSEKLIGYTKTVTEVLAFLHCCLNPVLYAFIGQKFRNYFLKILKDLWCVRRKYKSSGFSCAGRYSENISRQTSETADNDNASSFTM

[26] = target: Beta-galactosidase (Escherichia coli, UniProt Q8VNN2); test: detection-enzyme interference by beta-gal modulators – biochemical, E. coli enzyme, set 3, artefact control for CCR6 antagonist project, dose response (AID 504712); assay type: functional
[27] = tested on: Vero; test: cells; assay type: functional; details: Chlorocebus sabaeus
[28] = blockers of bursicon-stimulated LGR2 cAMP reporter – cell-based, HEK293, CRE-luciferase reporter, cherry pick, set 2, dose response (AID 743343); assay type: functional;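 note: transfected cells were stimulated with diluted bursicon conditioned medium after compound addition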
[29] = blockade of melanocortin 4 receptor signaling – cell-based, plate reader, cherry pick, counter-screen for LGR2 antagonist project, dose response (AID 743444); assay type: functional;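 note: transfected HEK 293 cells stimulated with alpha-MSH peptide; potency of inhibitors of the alpha-MSH evoked signal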
[30] = potency of ADAM10 substrate cleavage blockers – biochemical, QFRET, dose response (AID 743254);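 note: ADAM10 enzyme with the DM2 quenched FRET peptide as substrate; EDANS fluorescence gain as the protease cuts the substrate; inhibitor potency against ADAM10 proteolytic activity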
[31] = target: Disintegrin and metalloproteinase domain-containing protein 17 (Homo sapiens, UniProt P78536); test: inhibition of ADAM17 substrate cleavage – biochemical, quenched FRET substrate, counter-screen for ADAM10 exosite inhibitor project, dose response (AID 743253)
[32] = target: Induced myeloid leukemia cell differentiation protein Mcl-1 (Homo sapiens, UniProt Q07820); assay type: functional
[33] = viability loss in CEM21 cells – cell-based, CellTiter-Glo luminescence, cherry-picked, cytotoxicity control for viral fusion inhibitor project, dose response (AID 652042); assay type: functional;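 note: potency for signal decrease meaning cytotoxicity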

## CN(C(=O)CSc1cc(C(=O)c2nccn2C)c2ccccc2n1)c1ccccc1
[1]
  IC50: 11.4 µM (inactive)
[2]
  IC50: > 138 µM (inactive)

## COCCCN1C(=O)/C(=C\c2nc(C#N)c(Nc3ccc(C)cc3)o2)SC1=S
[3]
  EC50: > 35.4 µM (not active)
[4]
  EC50: 108 µM (active)
[5]
  EC50: > 35.4 µM (not active)
[6]
  EC50: > 150 µM (not active)
[7]
  EC50: > 35.4 µM (not active)
[8]
  EC50: > 150 µM (not active)

## COC(=O)C(C)Oc1ccc2cc(-c3ccccc3)c(=O)oc2c1 (stereo not drawn)
[9]
  IC50: 6.14 µM (active)
[10]
  EC50: 5.16 µM (active)

## O=C(O)CCNc1nc(C(F)(F)F)nc2ccccc12
[11]
  AC50: 1.64 µM (active)

## Cc1c(C(=O)c2ccccc2C(=O)O)sc2ccccc12
[1]
  IC50: 8.21 µM (active)
[2]
  IC50: > 138 µM (inactive)

## C[n+]1ccc(-c2ccncc2)cc1
[12]
  IC50: 82.2 µM (active)
[13]
  IC50: 7.33 µM (active)
[14]
  IC50: 2.02 µM (active)
[15]
  IC50: 2.53 µM (active)

## CCOC(=O)c1ccc(-n2c(=S)sc3c(O)nc(C)nc32)cc1
[3]
  EC50: > 35.4 µM (not active)
[5]
  EC50: > 35.4 µM (not active)
[7]
  EC50: > 35.4 µM (not active)

## CCOC(=O)c1c(C)n(C)c2ccc(OCC(O)CNCCc3ccccc3)cc12 (stereo not drawn)
[16]
  EC50: 0.601 µM (active)
[17]
  EC50: 4.89 µM (active)
[18]
  AC50: 37.7 µM (active)
[19]
  AC50: 21.9 µM (active)
[20]
  AC50: > 52 µM (inactive)

## Cc1oc2c(C)c3oc(=O)c(CCC(=O)NCCCCCC(=O)O)c(C)c3cc2c1C
[10]
  EC50: > 69.5 µM (inactive)

## COc1cc2oc(=O)cc(-c3ccc(-c4ccc(CO)cc4)cc3)c2c(OC)c1OC
[21]
  AC50: 12.1 µM (active)
[22]
  AC50: 5.08 µM (active)
[23]
  AC50: 8.61 µM (active)
[24]
  AC50: 13.2 µM (active)

## Cc1nc(SCCC(=O)O)c2ccccc2n1
[1]
  IC50: 0.915 µM (active)
[2]
  IC50: > 138 µM (inactive)

## CN(CC(=O)Nc1ccc(OC(F)F)cc1)S(=O)(=O)/C=C/c1ccccc1
[25]
  IC50: > 66.6 µM (inactive)
[26]
  IC50: > 66.6 µM (inactive)

## CC(=O)c1cc2c(cc1NS(=O)(=O)c1ccccc1Br)OCO2
[10]
  EC50: 66.2 µM (inactive)

## CCCCN(CCCNC(=O)c1ccc2c(c1)NC(=O)CN2C)c1ccccc1
[27]
  CC50: > 25 µM (active)
[28]
  AC50: 21.6 µM (active)
[29]
  AC50: 23.9 µM (active)
[20]
  AC50: 16.7 µM (active)

## COc1ccc(OC(F)(F)F)cc1CC1(C)C(=O)Nc2ccc(-c3ccsc3)cc21 (stereo not drawn)
[30]
  IC50: 8.48 µM (active)
[31]
  IC50: > 69.5 µM (inactive)

## COc1cc(/C=N/Nc2nc(C)nc3c2cnn3-c2ccccc2)ccc1O
[32]
  IC50: 9.67 µM (active)
[18]
  AC50: 8.71 µM (active)
[19]
  AC50: 27.1 µM (active)
[28]
  AC50: 23.1 µM (active)
[20]
  AC50: > 52 µM (inactive)

## CCCCC[C@H](C)N1C[C@@H](COCc2ccccc2)Oc2cc(N3CCC[C@H]3CO)ccc2S1(=O)=O
[11]
  AC50: > 30 µM (inactive)

## CCCCCCCCN1C(=O)[C@H](CC(=O)NCC2CCCCC2)C[C@@]2(C(=O)OCC)CCC=C12
[11]
  AC50: 27.7 µM (active)

## C[C@H]1CN([C@@H](C)CO)S(=O)(=O)c2ccc(-c3ccc(F)cc3)cc2O[C@H]1CN(C)Cc1cccc(F)c1
[21]
  AC50: 12.4 µM (active)
[33]
  AC50: 19.9 µM (active)

## CCN(CC)C(=O)c1ncn2c1C(=O)NC[C@@H]2C
[21]
  AC50: 8.99 µM (active)
[22]
  AC50: 9.08 µM (active)
[23]
  AC50: 24.7 µM (active)
